Several values for one entry are separate records, joined by “and”; a condition that tells them apart may be missing. Equal values may be shown once.
What was measured:
[1] = tested on: NMC-A β-lactamase reporter (C69X); assay: NMC-A β-lactamase reporter assay (ampicillin resistance by amber suppression with selenocysteine); assay type: cell-based, E. coli DHΔabc; conditions: DHΔabc; for ampicillin concentration supporting growth (β-lactamase activity): NMC-A C69X reporter, co-expressed with SelA
Description: A method of genetic selection capable of discriminating different levels of selenocysteine incorporation was developed. To specifically ‘addict’ a reporter protein to selenocysteine rather than serine, the NMC-A β-lactamase from Enterobacter cloacae was used. […] Then cysteine 69 was replaced with an amber stop codon (X69; FIG. 1a) for library selection, hypothesizing that the incorporation of selenocysteine and the formation of a selenyl-sulfhydryl bond would restore activity. (Swardn et al., 1998)
To eliminate any crosstalk between the tRNA^Sec library and the endogenous selenocysteine incorporation machinery, the selA, selB and selC genes (encoding SelA, SelB and tRNA^Sec respectively) were deleted from E. coli DH10B (designated DHΔabc). Cells containing the reporter plasmid pNMC-A C69X and the accessory plasmid pRSF-eSelA (expressing SelA) were transformed with plasmid pMB1-ZU containing the tRNA^Sec antideterminant library. Transformants were plated on media containing a gradient of ampicillin concentrations for selection of mutants capable of selenocysteine-specific suppression. The single colonies that arose covered a range of ampicillin concentrations. […] Of these tRNA^Sec variants, only G7-C66:U49-G65:C50-U64 was detected at the two highest ampicillin concentration (200 and 250 μg·ml^−1).
The tRNA^Sec antideterminant library was generated by enzymatic inverse PCR using oligonucleotide primers (Table 2) to randomize the six positions identified as the main antideterminant for EF-Tu binding. Following self ligation for 16 hours, DNA was ethanol precipitated with GlycoBlue (Ambion) and transformed by electroporation into E. coli DHΔabc containing the plasmids pNMC-A C69X and pRSF-eSelA. Transformants were diluted in 200 ml LB medium containing 12.5 μg·mL^−1 Zeocin, 6.25 μg·mL^−1 tetracycline and 25 μg·mL^−1 kanamycin and incubated overnight. Following overnight growth, cells were diluted 1/50 in LB medium containing 6.25 μg·mL^−1 Zeocin, 3.75 μg·mL^−1 tetracycline, 12.5 μg·mL^−1 kanamycin, 1 μM Na2SeO3 and 20 μg·mL^−1 L-cysteine and incubated for one hour. A series of 250 μl aliquots of cells were plated on LB agar containing 6.25 μg·mL^−1 Zeocin, 3.75 μg·mL^−1 tetracycline, 12.5 […], 1 μM Na2SeO3 and 20 μg·mL^−1 L-cysteine and 50-300 μg·mL^−1 ampicillin in 50 μg·mL^−1 increments. After 20 hours at 37° C. individual colonies were observed on plates containing 50-200 μg·mL^−1 ampicillin. Plasmid DNA was isolated from a selection of colonies from all plates and tRNA^Sec mutations determined by Sanger sequencing.
NotI/NcoI fragments containing tRNA^SecUx were subcloned into pRSF-eSelA to generate pRSF-UX-eSelA. pRSF-U-eSelA variants described in Table 1 were transformed into E. coli DHΔabc containing the reporter plasmid pNMC-A C69TAG. DHΔabc cells containing pNMC-A and pRSFDuet-1 were used as a positive control. DHΔabc cells harboring pNMC-A C69S and pRSF-UX-eSelA, and pNMC-A C69TAG and pRSF-UX-ΔSelA were used as controls for selenocysteine dependent β-lactamase activity. Transformants were cultured overnight in LB medium containing 6.25 μg·mL^−1 tetracycline, 25 μg·mL^−1 kanamycin, 1 μM Na2SeO3 and 20 […]. Following overnight growth, cells were diluted 1/10 in LB medium containing antibiotics, selenite and L-cysteine and incubated for three hours. […]

[2] = tested on: Pseudomonas aeruginosa azurin position 112; assay: Selenocysteine incorporation into azurin C112X by intact mass spectrometry; parameters: species or system E. coli RTΔA.2; conditions: peak areas of the mass spectrum
Protocol: RTΔA.2 transformants containing pAz-C112X-AU and pRSF-eSelAK were cultured as described previously with the exception that 20 μM Na2SeO3 was added for the 24 hour incubation. Cells were harvested by centrifugation and the periplasmic fraction isolated. Briefly, cell pellets were resuspended in 50 mL of 100 mM Tris and 0.75 M sucrose at pH 7.5. Following addition of lysozyme to 1 mg·mL^−1 and protease inhibitor cocktail cells were gently agitated for 20 min at 4° C. 50 mL of 1 mM EDTA was added and samples incubated again for 20 minutes. EDTA was neutralized by addition of 3.5 mL 0.5M MgCl2 during a further 20 min incubation. Spheroblasts were removed by centrifugation at 35000×g for 30 min, the periplasmic fraction passed through a 0.2 µm filter and mixed with imidazole stock solution to a final concentration of 20 mM. Seleno-azurin was recovered by IMAC using Ni-NTA resin and gravity flow columns. Eluate was concentrated and dialyzed against 50 mM NH4Ac pH 6.5 prior to the isolation of seleno-azurin by size exclusion FPLC. […]
Intact protein samples were analyzed using methods described previously (Ellefson et al., 2014). […] UVPD mass spectra were also deconvoluted using Xtract and then analyzed using ProsightPC 3.0. […] Incorporation efficiencies were calculated by dividing the area of the modified protein peak by the summed areas of the unmodified protein peak and the modified protein peak. […]

[3] = tested on: NMC-A β-lactamase reporter (C69X C238X); assay: NMC-A β-lactamase reporter assay in strain lacking release factor 1; assay type: cell-based, E. coli RTΔA; conditions: RF1-deficient background, two amber codons

Substance	ampicillin concentration supporting growth (β-lactamase activity) [1]	ampicillin concentration at which the tRNA variant was detected in library selection ([1]; antideterminant library, pNMC-A C69X, pRSF-eSelA)	selenocysteine incorporation efficiency in azurin [2]	formation of functional diselenide bond (U69 and U238) in NMC-A [3]
tRNA^UTu (GGAAGATGTGGCCGAGCGGTTGAAGGCACCGGT; expressed or natural sequence)	75 µg/mL	–	–	–
tRNA^SecUx: Evolved E. coli tRNA^Sec variant with the G7-C66:U49-G65:C50-U64 antideterminant sequence and CUA anticodon	up to 400 μg·ml^−1	200 µg/mL and 250 µg/mL	greater than 76%	could now support the formation of a functional diselenide bond

Source: patent US12344879B2, “Transgenic bacteria with expanded amino acid usage and nucleic acid molecules for use in the same” (BOARD OF REGENTS, THE UNIVERSITY OF TEXAS SYSTEM, priority 2015, dated 2025)
